Results published in patent US20130059375A1, “METHOD FOR PREPARING ES CELLS” (RIKEN, priority 2010, published 2013).

System: inner cell mass (ICM) of NOD/SCID mouse
Test: Inventors' earlier attempts to establish ES cells from NOD/SCID inner cell mass by known methods
Assay type: cell-based
Details: factor(s) in medium
Method: The present inventors have considered that this problem can be solved by establishing an ES cell from an NOD/SCID background mouse and introducing human gene thereinto to generate the human gene-introduced NOD/SCID background mouse. […] Furthermore, an FGF receptor inhibitor, an MEK activation inhibitor and a GSK3 inhibitor were added to the medium according to the method that established an ES cell from an NOD mouse (non-patent document 4).

In the case of “ACTH: known peptide hormone consisting of 39 amino acids (SYSMEHFRWGKPVGKKRRPVKVYPNGAEDESAEAFPLEF; Corticotropin; UniProt P01189 138-176, looked up)”, the “establishment of ES cell” value is reported as “could not establish”.
